Test results taken from patent US5091390A, “Treatment of CNS disorders with 4,5,6,7-tetrahydro-1H-imidazo (4,5-)-pyridines and analogs” (E. I. du Pont de Nemours and Company, priority 1990, dated 1992).
Values joined by “and” are separate entries in the source; they are usually repeats but may differ in a detail not shown here. Equal values may be shown once. “Also recorded” adds a separate entry of the source. Read-outs that look alike come from different tables or passages of the source.

What was measured:
[1] = system: AII receptors (rat adrenal cortical microsomes); experiment: [125I]AII total specific binding, rat adrenal cortex / cortical microsomes
Description: (§2) The same procedures and conditions were used for adrenal medullary microsomes. […] After 60 min of incubation, the reaction was terminated by addition of cold assay buffer. The bound and free radioactivity were rapidly separated through glass-fiber filters, and the trapped radioactivity was determined by gamma counting.

[2] = target: T1, AII receptors (rat adrenal medullary microsomes) (Rattus norvegicus, UniProt P35351); experiment: [125I]AII specific binding, rat adrenal medulla / medullary microsomes
T1 construct: from tissue; host or cells: rat adrenal medulla, microsomes
T1 sequence (P35351 1-363): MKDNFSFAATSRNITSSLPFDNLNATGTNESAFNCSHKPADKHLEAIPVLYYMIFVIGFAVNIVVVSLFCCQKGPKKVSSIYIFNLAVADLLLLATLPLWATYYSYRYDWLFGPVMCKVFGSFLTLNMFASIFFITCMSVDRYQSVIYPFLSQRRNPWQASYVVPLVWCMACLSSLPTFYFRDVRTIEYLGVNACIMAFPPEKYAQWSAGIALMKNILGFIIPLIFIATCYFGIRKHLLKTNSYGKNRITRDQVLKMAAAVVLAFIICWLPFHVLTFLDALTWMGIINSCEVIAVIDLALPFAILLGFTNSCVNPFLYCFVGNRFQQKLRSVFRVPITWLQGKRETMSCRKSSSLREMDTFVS
Description: as §2

[3] = system: AII receptors (rat adrenal medullary microsomes); experiment: as above; conditions: below 1×10^-5 M; rat adrenal medullary microsomes
Description: as §2

[4] = system: AII receptors (rat adrenal cortical membranes); experiment: AII binding to rat adrenal cortical membranes with and without DTT pretreatment; conditions: for effect of DTT on the inhibition of AII binding: 5 mM DTT, DuP 753 at 3×10^-9 to 3×10^-6 M
Description: (§1) 102: 685-696, except the above binding assay conditions were used.

AII-1 receptor [5] = experiment: [125I]AII radioligand binding, rat adrenal cortical microsomes, AII-1 (DuP 753-sensitive) sites; conditions: for preference for one AII receptor subtype: AII-1 vs. AII-2
Description: as §2

[6] = system: AII receptors (rat adrenal gland); conditions: DuP 753 10^-5 M, XB-655 10^-6 M
Description: Fresh tissue was frozen on powdered dry ice and stored at -70° C. until used. Sections were cut at 15 microns and thaw mounted onto gelatin subbed slides. […] Slides were placed under X-ray film (Kodak XAR-5) and exposed for 11/2 days before processing the film to produce the film autoradiograms. The slides were then fixed with paraformaldehyde vapor at 80° C. for two hours, dried under air, delipidated, and dipped in emulsion (Kodak NTB-2). The coated slides were exposed for 4-5 weeks, developed with Kodak D-19 and counter-stained with hemotoxylin-eosin to view the histology.

[7] = system: retention of a passive avoidance (PA) response; conditions: injected into the dorsal neostriatum, rats; cited from earlier work
[8] = system: potassium stimulated release of [^3 H]ACh; conditions: entorhinal cortex of rat brain; cited from earlier work
[9] = system: memory of previously learned tasks; conditions: in vivo; cited from earlier work
AII-2 receptor [10] = target: T2, AII-2 receptor (Rattus norvegicus, UniProt P35351); experiment: [125I]AII radioligand binding, rat adrenal cortical microsomes, AII-2 (DuP 753-insensitive) sites; conditions: for selective binding to AII-2 receptors: AII-2 vs. AII-1
T2 sequence (P35351 1-363): T1 sequence (P35351 1-363)
Description: as §2

avoidance learning = conditions: renin IVT, cited from earlier work; for avoidance learning: captopril IVT prior to the renin injection
PA task = experiment: renin-induced amnesia in a PA task (applicants); format: in vivo; conditions: IVT
[11] = system: light/dark habituation performance; conditions: cited from earlier work
AII-1 receptor [12] = experiment: DTT inactivation of the AII-1 receptor; format: binding, rat
Description: as §1

AII-2 receptor [13] = target: T2, AII-2 receptor; experiment: DTT inactivation of the AII-2 receptor; format: binding; set-up: AII-1 and AII-2 receptor subtypes in rat adrenal cortex microsomes; from tissue; host or cells: rat adrenal cortex (microsomes)
Description: as §1

AII receptor subtype B = conditions: cited from earlier work
AII receptor subtype A = conditions: cited from earlier work
[14] = in the presence of 10^-5 M XB-655, rat adrenal cortex microsomes, read-out: IC50 AII-1

CCCCc1nc(Cl)c(CO)n1Cc1ccc(-c2ccccc2-c2nn[nH]n2)cc1 [DuP 753]
inhibition of the total AII binding [1]: 80% | inhibition of AII binding (in words) ([2]; rat adrenal medulla): essentially inactive | inhibition of binding below 1×10^-5 M [3]: 10% | effect of DTT on the inhibition of AII binding [4]: essentially abolished | IC50 (AII-1 receptor [5]; [14]): 12 nM | labeling of adrenal cortex by [125I]AII [6]: significantly reduced | labeling of adrenal medulla by [125I]AII [6]: not appreciably affected

lysine-8-vasopressin
retention of a PA response [7]: no effect

[1-sarcosine, 8-threonine]angiotensin II
antagonism of the AII effect on ACh release [8]: antagonized

Angiotensin II (DRVYIHPF; Angiotensin-2; UniProt P01019 25-32, looked up) [AII]
retention of a PA response [7]: disruption in retention of a PA response | basal levels of ACh release [8]: without effects on basal levels | potassium-stimulated release of ACh [8]: reduced potassium-stimulated release of ACh | enhancement of inhibitory potency by DTT ([4]; presence vs. absence of DTT): 2.5 fold | IC50 ([4]; read-out: IC50 in the absence of DTT, absence of DTT): 1 nM | preference for one AII receptor subtype (AII-1 receptor [5]): no preference | labeling of adrenal cortex by [125I]AII [6]: potently inhibited the labeling | labeling of adrenal medulla by [125I]AII [6]: potently inhibited the labeling

NCCCC[C@H](OP(=O)(O)CCCCc1ccccc1)C(=O)N1CCC[C@H]1C(=O)O [SQ 29852]
anticholinergic effect on performance [9]: ameliorate, at least in part | memory of previously learned tasks [9]: protective effects on memory

COC(=O)C1Cc2c(ncn2Cc2ccc(NC(=O)c3ccccc3C(=O)O)c(C)c2)CN1C(=O)C(c1ccccc1)c1ccccc1 (centres unmarked) [Example 2, Methyl-1-[4-amido-(2'-carboxyphenyl)-3-methylphenyl]methyl-5-diphenylacetyl-4,5,6,7-tetrahydro-1H-imidazo (4,5-C)-pyridine-6-carboxylate]
selective binding to AII-2 receptors (AII-2 receptor [10]): bind selectively to AII-2 receptors | IC50 (AII-1 receptor [5]; [14]): 12000 nM

C[C@H](CS)C(=O)N1CCC[C@H]1C(=O)O [captopril]
avoidance learning (avoidance learning): prevented the renin-induced avoidance disruption | amnesia in a PA task (PA task): prevented | anticholinergic scopolamine-induced disruption of performance ([11]; daily treatment): prevented | rate of acquisition of light/dark habituation performance ([11]; subchronic treatment): increased the rate of acquisition

NC(=O)[C@@H]1CCCN1C(=O)[C@H](Cc1cnc[nH]1)NC(=O)[C@@H]1CCC(=O)N1 [thyrotropin releasing hormone]
retention of a PA response [7]: no effect

CNCC(=O)N[C@@H](CCCN=C(N)N)C(=O)N[C@H](C(=O)N[C@@H](Cc1ccc(O)cc1)C(=O)N[C@H](C(=O)N[C@@H](Cc1cnc[nH]1)C(=O)N1CCC[C@H]1C(=O)N[C@@H](C)C(=O)O)C(C)C)C(C)C [Saralasin]
IC50 ([2]; rat adrenal medulla / medullary microsomes): 0.4 nM | effect of DTT on the inhibition of AII binding [4]: not significantly altered | IC50 (AII-2 receptor [10]; IC50 AII-2, in the presence of 10^-5 M DuP 753, rat adrenal cortex microsomes): ~1.3 nM and 1.3 nM | preference for one AII receptor subtype (AII-1 receptor [5]): no preference | IC50 (AII-1 receptor [5]; [14]): 1.7 nM | IC50 (AII-1 receptor [5]; read-out: IC50, DuP 753-sensitive site, in the presence of 10^-5 M XB-655, unit inferred): ~1.7 nM

O[C@H](CS)[C@H](O)CS (racemic) [DTT, dithiothreitol]
inactivation of AII-1 receptor by DTT (AII-1 receptor [12]): particularly sensitive to inactivation; also recorded: inactivated by DTT | inactivation of AII-2 receptor by DTT (AII-2 receptor [13]): resistant to DTT inactivation | effect of DTT on binding to subtype B (AII receptor subtype B): inhibit binding to subtype B | effect of DTT on binding to subtype A (AII receptor subtype A): enhance binding to subtype A

O=C(O)C1Cc2c(ncn2Cc2ccc(-c3ccccc3-c3nnn[nH]3)cc2)CN1C(=O)C(c1ccccc1)c1ccccc1 (centres unmarked) [Example 27]
selective binding to AII-2 receptors (AII-2 receptor [10]): bind selectively to AII-2 receptors | IC50 (AII-1 receptor [5]; [14]): 300000 nM

B1: renin: an enzyme involved in endogenous AII biosynthesis (protein, UniProt P00797 67-406, looked up)
Renin: LTLGNTTSSVILTNYMDTQYYGEIGIGTPPQTFKVVFDTGSSNVWVPSSKCSRLYTACVYHKLFDASDSSSYKHNGTELTLRYSTGTVSGFLSQDIITVGGITVTQMFGEVTEMPALPFMLAEFDGVVGMGFIEQAIGRVTPIFDNIISQGVLKEDVFSFYYNRDSENSQSLGGQIVLGGSDPQHYEGNFHYINLIKTGVWQIQMKGVSVGSSTLLCEDGCLALVDTGASYISGSTSSIEKLMEALGAKKRLFDYVVKCNEGPTLPDISFHLGGKEYTLTSADYVFQESYSSKKLCTLAIHAMDIPPPTGPTWALGATFIRKFYTEFDRRNNRIGFALAR
avoidance learning (avoidance learning): disruption of avoidance learning | AII level in cerebrospinal fluid (CSF) (avoidance learning; increase from 40): about 5000 fmol per mL | amnesia in a PA task (PA task): dose-related amnesia
